Measured values: US20110152362A1, “METHODS OF TREATING EPILEPTOGENESIS AND EPILEPSY” (priority 2004, published 2011)

How the values were obtained:
[1] = system: rats subjected to li-pilo SE; assay: Example 2: latency to and frequency of spontaneous seizures (video recording); assay type: in vivo, rat
Protocol: The effects of DZP and the 4 doses of TC on epileptogenesis were investigated by daily video recording of the animals for 10 h per day. Video recording was performed for 4 weeks during which the occurrence of the first seizure was noted as well as the total number of seizures over the whole period. Animals were then taken off the video recording system and kept for 4 additional weeks in our animal facilities before they were sacrificed after a total period of 8 weeks of epilepsy.

[2] = Example 3 study 1: single oral dose pharmacokinetics in healthy men; assay type: in vivo, human
Protocol: Two single-center, placebo-controlled, double-blind, ascending-dose studies were conducted in healthy men ≧18 and ≦45 yrs. In study 1 (N=70), subjects were randomly assigned to a single dose of Test Compound (TC) or placebo. Escalated doses were received as 100, 250, 400, 750, 1000, 1250, and 1500 mg. PK parameters were estimated from plasma and urine samples collected up to 3 days post dose. Study 2 (N=53) evaluated the PK of repeated doses of Test Compound (TC) in 4 dose groups (100, 250, 500, or 750 mg). Within each group, 12 subjects were assigned to q12h treatment with drug or placebo for 1 wk and were crossed over after a 14-day washout period. PK parameters were estimated from plasma and urine samples on days 1 and 7.

[3] = system: rats subjected to Li-pilo induced SE; assay: Example 1: latency to and frequency of spontaneous recurrent seizures (SRS), lithium-pilocarpine model; assay type: in vivo, rat
Protocol: (§1) The bilateral EEG cortical activity was recorded during the whole duration of SE and behavioral changes were noted.
(§2) The effects of increasing doses of the Test Compound were studied on 3 groups of rats. The animals of the first group received 10 mg/kg of the test compound, i.p., 1 h after the onset of SE (pilo-TC10) while the animals of groups 2 and 3 received 30 and 60 mg/kg of the Test Compound (pilo-TC30 and pilo-TC60), respectively.
(§3) The control group received saline instead of pilocarpine and the Test Compound (saline-saline). […] Pilo-DZP received a second injection of 1 mg/kg DZP on the day of SE at about 10 h after the first one. Thereafter, Pilo-DZP and saline-saline rats received twice daily an equivalent volume of saline.
The effects of the test compound on the EEG and on the latency to occurrence of SRS were investigated by daily video recording of the animals for 10 h per day and the recording of the electrographic activity twice a week for 8 h.
To calculate the frequency of SRS in pilocarpine-exposed rats, the seizure severity and distinguished stage III (clonic seizures of facial muscles and anterior limbs) and stage IV-V seizures (rearing and falling) was measured. The frequency of stage III SRS per week in pilo-DZP and pilo-test compound rats was variable amongst the groups. It was low, constant in the pilo-DZP and pilo-TC60 (with early SRS onset) groups during the first 3 weeks and had disappeared during the 4th week in the pilo-DZP group. […] The frequency of more severe stage IV-V SRS was highest during the first week in most groups, except pilo-TC30 and TC60 with late seizure onset where the SRS frequency was constant over the whole 4 weeks in TC30 group and over the first two weeks in the pilo-TC60 group with late SRS onset in which no stage IV-V seizures where no seizures recorded after the second week.

[4] = system: rats subjected to Li-pilo induced SE; assay: Example 1: mortality induced by lithium-pilocarpine status epilepticus; assay type: in vivo, rat
Protocol: as §1, §2, §3

[5] = system: rats subjected to Li-pilo induced SE; assay: Example 1: quantification of cell densities in hippocampus, thalamus and cortex after Li-pilo SE; assay type: in vivo, rat
Protocol: as §2, §3
Quantification of cell densities was performed at 6 days after SE on 8 pilo-DZP, 8 pilo-TC10, 7 pilo-TC30, 7 pilo-TC60, and 6 saline-saline rats. […] Counts involved only cells larger than 10 μm, smaller ones being considered as glial cells.
For the comparison of the characteristics of SE in pilo-saline and pilo-test compound animals, a non-paired Student's t-test was used. The comparison between the number of rats seizing in both groups was performed by means of a Chi square test. For neuronal damage, statistical analysis between groups was performed using ANOVA followed by a Fisher's test for multiple comparisons using the Statview software (Fisher R A, 1946a, Statistical Methods for Research Workers (10th edition) Oliver & Boyd, Edinburgh; Fisher R A, 1946b, The Design of Experiments (4th edition) Oliver & Boyd, Edinburgh)

[6] = system: seizures in rats; assay: ED50 for preventing seizures in rats; assay type: in vivo; conditions: Rattus norvegicus, depending on the time and experiment type
[7] = Blood levels in rats, oral administration of Test Compound for 8 days (toxicology studies); assay type: in vivo; conditions: rat; for Cmax at 8 days: blood
Source text: In toxicology studies in rats, oral administration of Test Compound (TC) for 8 days produced the following C max and AUC: […]

NC(=O)OC[C@@H](O)c1ccccc1Cl [TC]
effect on the latency to the first spontaneous seizure ([1]; 30 mg/kg): did not affect the latency to the first spontaneous seizure
latency of long latency subgroup relative to short latency ([1]; 3 higher doses (60, 90, 120 mg/kg)): 4-6 times longer
frequency of spontaneous seizures over four weeks of recording ([1]; TC60, 90 and 120 groups vs DZP and TC30 groups): lower
percentage of rats with short latencies to seizures ([1]; at 30 mg/kg (so in the source), short latency = shorter than 40 days after SE): 70%
percentage of rats with short latencies to seizures ([1]; at 90 mg/kg): 36%
percentage of rats with short latencies to seizures ([1]; at 120 mg/kg): 11%
percentage of non-epileptic rats (no seizure over 150 days post-SE) ([1]; at both highest doses, 90 and 120 mg/kg): 45%
Latency to the first spontaneous seizure ([1]; pilo-TC30, 30 mg/kg): 11.6 ± 2.5 days
Latency to the first spontaneous seizure ([1]; pilo-TC60, Long latency subgroup): 76.7 ± 15.6**°° days
Latency to the first spontaneous seizure ([1]; pilo-TC60, Short latency subgroup): 17.4 ± 5.4 days
Latency to the first spontaneous seizure ([1]; pilo-TC90, Long latency subgroup): 52.0 ± 1.0*° days
Latency to the first spontaneous seizure ([1]; pilo-TC90, Non epileptic subgroup (no seizure over 150 days post-SE)): 150**°° days
Latency to the first spontaneous seizure ([1]; pilo-TC90, Short latency subgroup): 14.8 ± 5.7 days
Latency to the first spontaneous seizure ([1]; pilo-TC120, Long latency subgroup): 84.5 ± 16.7**°° days
Latency to the first spontaneous seizure ([1]; pilo-TC120, Non epileptic subgroup (no seizure over 150 days post-SE)): 150**°° days
Latency to the first spontaneous seizure ([1]; pilo-TC120, Short latency subgroup): 13.0 days
Tmax ([2]; male, human, plasma, single oral dose 100-1500 mg, healthy men): 1.3 to 2.7 h
half-life ([2]; male, human, plasma, single oral dose 100-1500 mg, healthy men, read-out: Mean t1/2): 11.5 to 13.9 h
Cmax and AUC0-∞ dose dependence ([2]; single dose over the range of 100-1500 mg): increased in proportion to dose
Mean CL/F ([2]; single oral dose 100-1500 mg, healthy men): 2.87 to 3.67 L/h
absorption following oral administration ([2]; single oral dose, healthy men): rapidly absorbed
rats in which occurrence of spontaneous seizures was delayed ([3]; TC 60 mg/kg (4 out of 11)): 36%
mean delay to epilepsy in subgroup vs other groups of animals ([3]; TC 60 mg/kg, subgroup): about 9 fold longer
latency to SRS ([3]; TC60, subgroup with latency similar to other groups (n=7)): 17.6 ± 8.7 days
latency to SRS, mean ([3]; TC60, subgroup with much longer delay (n=4)): 149.8 ± 36.0 days
frequency of stage IV-V SRS ([3]; first week, TC10, TC30 and TC60 (with early SRS onset) groups): 2.3-6.1 SRS per week
frequency of stage III SRS ([3]; pilo-TC10 group, weeks 3 and 4): significantly increased over pilo-DZP values
latency to SRS ([3]; pilo-TC10 rats): 15.4 ± 5.1 days
latency to SRS ([3]; pilo-TC30 rats): 18.9 ± 9.0 days
frequency of stage IV-V SRS ([3]; weeks 2-4, pilo-TC60 group with early SRS onset): 0.6-0.9 seizure per week
mortality during the first 48 h after SE ([4]; pilo-TC10, 10 mg/kg i.p.): 26%
mortality during the first 48 h after SE ([4]; pilo-TC30, 30 mg/kg i.p.): 20%
mortality during the first 48 h after SE ([4]; pilo-TC60, 60 mg/kg i.p.): 4%
protective effects at lowest dose tested in Example 1 ([5]; 10 mg/kg/day): minimal or no protective effects
protection in CA3b ([5]; 60 mg/kg): significantly neuroprotective
reduction of neuronal damage, lateral thalamic nucleus ([5]; 60 mg/kg dose): 65%
reduction of neuronal damage, mediodorsal thalamic nucleus ([5]; 60 mg/kg dose): 42%
neuroprotection compared to pilo-DZP rats, ventral entorhinal cortex layers III-IV ([5]; TC60 administration): 31%
reduction of neuronal damage recorded in pilo-DZP rats, piriform cortex layer II ([5]; TC60 treatment): 41%
reduction of neuronal damage recorded in pilo-DZP rats, piriform cortex layers III-IV ([5]; TC60 treatment): 44%
worsening of cell loss compared with pilo-DZP rats, dorsal entorhinal cortex layers III-IV ([5]; pilo-TC10 rats): 28 % more damage
worsening of cell loss compared with pilo-DZP rats, ventral entorhinal cortex layers III-IV ([5]; pilo-TC10 rats): 35 % more damage
cell loss, CA1 pyramidal layer ([5]; pilo-TC30 animals): 35%
cell loss, CA1 pyramidal layer ([5]; pilo-TC60 animals): 16%
cell loss in the hilus of dentate gyrus ([5]; pilo-test compound animals (10, 30, 60 mg/kg)): 69-72%
protection in the CA3a area ([5]; test compound 10, 30, 60 mg/kg): did not afford any protection
ED50 [6]: 4 to 30 mg/kg
Cmax at 8 days ([7]; oral 30 mg/kg/day for 8 days): 9330 ng/mL
Cmax at 8 days ([7]; oral 100 mg/kg/day for 8 days): 20600 ng/mL
Cmax at 8 days ([7]; oral 300 mg/kg/day for 8 days): 70300 ng/mL
AUC ([7]; oral 30 mg/kg/day for 8 days): 97.32 micrograms-hour/mL
AUC ([7]; oral 100 mg/kg/day for 8 days): 230.33 micrograms-hour/mL
AUC ([7]; oral 300 mg/kg/day for 8 days): 525.95 micrograms-hour/mL
